Assay results taken from patent US10406169B2, “Methods of monitoring estriol therapy” (The Regents of the University of California, priority 2015, dated 2019).

Tested on: relapsing-remitting multiple sclerosis
Test: MRI brain volumes (pairwise Jacobian integration)
Assay type: in vivo, human
Experimental: Mixed effects negative binomial regression model and linear mixed effects model were used to compare enhancing lesion volume (log-transformed) between treatment groups at all follow-ups, and mixed effects logistic model was used to compare the number of subjects positive for gadolinium enhancing lesions. Linear mixed effects model was carried out to compare the percent change in whole gray matter and cortical gray matter between treatment groups. For the exploratory endpoints of EDSS, PASAT, fatigue, depression, quality of life and brain volume measures, linear mixed effects model was used to compare treatment groups at 12 and 24 months.
Dual-echo fast spin echo: TR10000, TE12/95, 50 slices, 1×1×3 mm. Fluid attenuated inversion recovery (FLAIR): TR10380, TE88, TI88, TI2500, 50 slices, 1×1×3 mm. Minor changes were allowed to accommodate different platforms and field strengths at each site. MRI data in Dicom format were fully anonymized prior to transfer and then uploaded to the central MRI reading center database. Prior to study onset, each site provided a dummy scan utilizing the standardized sequences for review by the central MRI reading center to verify scan quality and fidelity. Quality control was maintained at each site using standard procedures for clinical scanners (daily phantoms, stability testing). Quarterly phantoms were collected from 12 of the 15 sites, most using the standard American College of Radiology (ACR) phatom. One site upgraded from a Siemens 1.5T to a 3.0T in November 2013, resulting in the acquisition of one month 24 scan on the new scanner. One site upgraded from a Phillips Achieva 3.0T to a Pillips Intera 3.0T after the first subject completed month 24. All subsequent studies were performed on the Intera.
MRI brain, whole gray matter, whole white matter and cortical gray matter volumes were determined using a pairwise Jacobian integration (PJI) method. Pre-processing for structural T1-weighted images included 1) N3 non-uniformity correction, 2) histogram-based intensity normalization, 3) linear standard space registration using ICBM 2009c nonlinear symmetric template, 4) patch-based brain extraction, and 5) lesion-inpainting. Inputs to PJI were a pair of baseline and follow-up pre-processed structural T1-weighed images. The PJI consisted of 1) linear skull-constrained symmetric registration, 2) halfway transformation and resampling, 3) nonlinear symmetric registration using ANTS, and 4) voxelwise Jacobian determinant calculation on the warp field. Whole gray matter and whole white matter tissue masks were generated by SPM8 Segment function. Additional nonlocal means denoising was applied. For whole brain tissue masks, the whole gray matter and whole white matter masks were combined. For cortical gray matter mask, a standard cortical mask was nonlinearly transformed and merged with gray matter mask. The standard template was the ICBM (ICBM 2009c nonlinear symmetric version), and the nonlinear registration was performed by ANTS. Finally, the Jacobian determinants were averaged within the masks for percent volume change in cortical gray matter, whole gray matter, whole white matter, and whole brain.

[1] = Baseline to 12 months, all patients
[2] = Baseline to 12 months, all patients, listed as Placebo+GA
[3] = Baseline to 12 months, patients with enhancing lesions at baseline
[4] = Baseline to 12 months, patients without enhancing lesions at baseline
[5] = Baseline to 12 months, patients without enhancing lesions at baseline, listed as Placebo+GA
[6] = Baseline to 24 months, all patients
[7] = Baseline to 24 months, patients with enhancing lesions at baseline
[8] = Baseline to 24 months, patients without enhancing lesions at baseline

glatiramer acetate [Placebo + GA]
Cortical gray matter baseline volume (Baseline): 761 ± 42 cc | White matter baseline volume (Baseline): 640 ± 32 cc | Whole brain baseline volume (Baseline): 1602 ± 51 cc | Whole gray matter baseline volume (Baseline): 926 ± 52 cc | Cortical gray matter volume % change, Mean ± SE [1]: −0.74 ± 0.81, % | Cortical gray matter volume % change, median [1]: −0.69% | White matter volume % change, Mean ± SE [1]: −0.21 ± 0.82, % | White matter volume % change, median [1]: −0.15% | Whole brain volume % change, Mean ± SE [1]: −0.49 ± 0.63, % | Whole brain volume % change, median [1]: −0.43% | Whole gray matter volume % change, Mean ± SE [1]: −0.68 ± 0.71, % | Whole gray matter volume % change, median [1]: −0.66% | Cortical gray matter volume % change, Mean ± SE [2]: −0.74% | Whole gray matter volume % change, Mean ± SE [2]: −0.68% | Cortical gray matter volume % change, Mean ± SE [3]: −0.67 ± 0.72, % | Cortical gray matter volume % change, median [3]: −0.69% | White matter volume % change, Mean ± SE [3]: −0.36 ± 1.06, % | White matter volume % change, median [3]: −0.14% | Whole gray matter volume % change, Mean ± SE [3]: −0.65 ± 0.64, % | Whole gray matter volume % change, median [3]: −0.64% | Cortical gray matter volume % change, Mean ± SE [4]: −0.76 ± 0.85, % | Cortical gray matter volume % change, median [4]: −0.73% | White matter volume % change, Mean ± SE [4]: −0.15 ± 0.71, % | White matter volume % change, median [4]: −0.15% | Whole gray matter volume % change, Mean ± SE [4]: −0.70 ± 0.74, % | Whole gray matter volume % change, median [4]: −0.66% | Cortical gray matter volume % change, Mean ± SE [5]: −0.76% | Whole gray matter volume % change, Mean ± SE [5]: −0.70% | Cortical gray matter volume % change, Mean ± SE [6]: −1.05 ± 0.86, % | Cortical gray matter volume % change, median [6]: −0.94% | White matter volume % change, Mean ± SE [6]: −0.52 ± 1.12, % | White matter volume % change, median [6]: −0.54% | Whole brain volume % change, Mean ± SE [6]: −0.77 ± 0.72, % | Whole brain volume % change, median [6]: −0.88% | Whole gray matter volume % change, Mean ± SE [6]: −0.95 ± 0.75, % | Whole gray matter volume % change, median [6]: −0.93% | Cortical gray matter volume % change, Mean ± SE [7]: −0.82 ± 0.80, % | Cortical gray matter volume % change, median [7]: −0.93% | White matter volume % change, Mean ± SE [7]: −0.62 ± 0.97, % | White matter volume % change, median [7]: −0.84% | Whole gray matter volume % change, Mean ± SE [7]: −0.82 ± 0.70, % | Whole gray matter volume % change, median [7]: −0.92% | Cortical gray matter volume % change, Mean ± SE [8]: −1.12 ± 0.88, % | Cortical gray matter volume % change, median [8]: −0.94% | White matter volume % change, Mean ± SE [8]: −0.46 ± 1.17, % | White matter volume % change, median [8]: −0.48% | Whole gray matter volume % change, Mean ± SE [8]: −0.98 ± 0.77, % | Whole gray matter volume % change, median [8]: −0.92%
